Measured values: US9636417B2, “Mucosal membrane receptor and uses thereof” (Universiteit Gent, priority 2008, dated 2017)
Entries after “also recorded” stand apart in the source; their conditions may differ.

Key:
BBMV of F4R+ pigs = experiment: F4 binding to BBMV after glycosidase or periodate treatment; design: species or system pig
Method: To remove sialic acid from the pAPN, 2 mg/ml BBMV from F4R+ pigs were incubated with soluble neuraminidase from Arthrobacter urefaciens (Calbiochem, specific for α2-3,6,8,9 linked sialic acid) for 3 hours at 37° C. according to the manufacturer's instructions. Fetuin, a sialic acid containing protein was used as a positive control and the buffer in which the neuraminidase was provided, was used as a negative control. Brush border membrane vesicles from F4R+ pigs were treated with N-glycosidase F (NEB, Beverly, Mass.) or with endoglycosidase H (NEB Beverly, Mass.) according to the manufacturer's instructions to remove all N-glycans (high mannose and complex, sialic acid containing glycans) or N-glycans of the high mannose type, respectively. RNAse B was used as a positive control and the buffer in which the enzyme was provided, was used as a negative control.
Brush border membrane vesicles from F4R+ pigs were treated with variable concentrations of NaIO4 (Sigma-Aldrich Chemie GmbH, Steinheim, Germany) in 50 mM sodiumacetate, pH 4.5, at 37° C. in the dark. Reactions were stopped by the addition of ethylene glycol to a final concentration of 20 mM. Brush border membrane vesicles from F4R− pigs were treated with the same […] and were used as a negative control.

pAPN-BHK-21 cells = experiment: Endocytosis assay (confocal microscopy) of FLUOS-labeled-F4 with chemical inhibitors; type: cell-based, porcine; conditions: for effect on F4 internalization in pAPN-BHK cells: different concentrations, inhibitor added 30 min before FLUOS-labeled-F4
Method: Cells were then washed with PBS supplemented with 0.1 mM CaCl2 and 1 mM MgCl2 (PBS+) to remove unbound FLUOS-labeled-F4 and shifted to 37° C. to start endocytosis. After different time intervals, cells were fixed with 3% paraformaldehyde (PF), permeabilized with 0.1% Triton X-100 and stained with 200 nM phalloidin-Texas Red (Molecular Probes, Eugene, Oreg., USA) in PBS+ for 1 h at 37° C. To analyze the effect of different inhibitors on endocytosis, cells were incubated with different concentrations of each inhibitor (Table 1). Inhibitors were added 30 min before incubation with FLUOS-labeled-F4 (25 μg). Cells were fixed with 3% PF at the indicated times. For each concentration of the chemical inhibitors, the viability of the cells was analyzed by flow cytometry after the addition of 10 μg propidium iodide (Molecular Probes, Eugene, Oreg., USA). The number of vesicles internalized in the cells was counted using confocal microscopy. Confocal images were acquired using a Leica TCS SP2 laser scanning spectrum confocal system (Leica Microsystems), using an argon 488-nm laser line and a […] 543-nm laser line to excite FITC and Texas Red respectively. Images were merged using Leica confocal software.

[1] = molecular target: T1, F4R on brush border membrane vesicles (BBMV) (Sus scrofa, UniProt P15145); experiment: biochemical; type: binding, pig; conditions: read-out: inhibition of adhesion of F4R+ BBMV to F4ac
T1 construct: Brush border membrane vesicles (BBMV) of the small intestine were prepared from the F4R+ and F4R− pigs; from tissue; host or cells: pig jejunum: enterocyte preparations, BBMV, ligated jejunal loops
T1 sequence (P15145 2-963): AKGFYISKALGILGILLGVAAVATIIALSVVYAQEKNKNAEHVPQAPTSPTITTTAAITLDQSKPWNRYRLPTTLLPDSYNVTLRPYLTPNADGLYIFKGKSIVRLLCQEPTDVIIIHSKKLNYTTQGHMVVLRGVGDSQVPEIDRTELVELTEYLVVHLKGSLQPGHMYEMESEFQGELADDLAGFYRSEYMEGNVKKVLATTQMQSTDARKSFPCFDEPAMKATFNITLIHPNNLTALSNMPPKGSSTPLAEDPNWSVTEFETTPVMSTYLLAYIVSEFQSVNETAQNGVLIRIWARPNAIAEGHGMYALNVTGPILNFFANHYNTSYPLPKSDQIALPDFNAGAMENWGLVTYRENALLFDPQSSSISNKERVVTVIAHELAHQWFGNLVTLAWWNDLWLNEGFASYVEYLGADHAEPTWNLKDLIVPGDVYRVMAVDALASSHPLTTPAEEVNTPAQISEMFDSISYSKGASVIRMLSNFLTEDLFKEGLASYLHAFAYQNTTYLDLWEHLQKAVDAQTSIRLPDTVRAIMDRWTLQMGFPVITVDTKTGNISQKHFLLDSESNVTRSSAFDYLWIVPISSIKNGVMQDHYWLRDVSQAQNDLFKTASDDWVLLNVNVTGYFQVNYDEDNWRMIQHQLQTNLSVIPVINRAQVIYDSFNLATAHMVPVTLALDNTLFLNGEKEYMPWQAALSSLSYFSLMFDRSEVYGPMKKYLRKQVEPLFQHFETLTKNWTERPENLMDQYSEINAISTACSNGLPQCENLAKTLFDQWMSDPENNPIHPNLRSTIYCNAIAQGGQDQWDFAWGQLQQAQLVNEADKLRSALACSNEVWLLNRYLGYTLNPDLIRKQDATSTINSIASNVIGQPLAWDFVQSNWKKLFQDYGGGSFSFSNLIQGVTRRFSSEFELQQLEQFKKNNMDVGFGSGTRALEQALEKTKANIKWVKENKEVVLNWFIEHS
Method: Brush border membrane vesicles (BBMV) of the small intestine were prepared from the F4R+ and F4R− pigs by the method of Kessler (1978) with a slight modification. Enterocytes were washed twice in PBS with 0.1 mM PMSF and were resuspended in Tris-HCl buffer (2 mM, pH 7.2) containing 50 mM mannitol in ratio 3:1 (vol/vol) whereafter cells were homogenized for 2 min with an Ultra Turrax (Janke & Kunkel, I K A Labortechnik, Staufen, Germany). Subsequently, CaCl2 was added to the homogenate to a final concentration of 10 mM and placed on ice for 15 min. Then the homogenate was centrifugated at 27,000×g for 30 min and washed with Tris buffer (pH 7.5) containing 50 mM mannitol and 10 mM HEPES and centrifuged again. The pellet was resuspended in the same buffer and used for the study. The protein concentration of the obtained BBMV was determined using the bicinchoninic acid (BCA) reaction with bovine serum albumin (BSA) as standard (ICN Biomedicals, Belgium).
The interaction between the F4ac fimbriae and BBMV or enterocytes of F4R+ and F4R− pigs was analyzed with the BIAcore®2000 biosensor (Uppsala, Sweden) using the CM3 chip. […]

[2] = molecular target: T2, pAPN transfected BHK-21 cells (Sus scrofa, UniProt P15145); experiment: Flow cytometry of FLUOS-labeled-F4 binding to pAPN transfected BHK-21 cells; type: cell-based, porcine
T2 construct: expressed in transfected cells; host or cells: BHK-21 (baby hamster kidney), G418-selected; gift
T2 sequence (P15145 1-963): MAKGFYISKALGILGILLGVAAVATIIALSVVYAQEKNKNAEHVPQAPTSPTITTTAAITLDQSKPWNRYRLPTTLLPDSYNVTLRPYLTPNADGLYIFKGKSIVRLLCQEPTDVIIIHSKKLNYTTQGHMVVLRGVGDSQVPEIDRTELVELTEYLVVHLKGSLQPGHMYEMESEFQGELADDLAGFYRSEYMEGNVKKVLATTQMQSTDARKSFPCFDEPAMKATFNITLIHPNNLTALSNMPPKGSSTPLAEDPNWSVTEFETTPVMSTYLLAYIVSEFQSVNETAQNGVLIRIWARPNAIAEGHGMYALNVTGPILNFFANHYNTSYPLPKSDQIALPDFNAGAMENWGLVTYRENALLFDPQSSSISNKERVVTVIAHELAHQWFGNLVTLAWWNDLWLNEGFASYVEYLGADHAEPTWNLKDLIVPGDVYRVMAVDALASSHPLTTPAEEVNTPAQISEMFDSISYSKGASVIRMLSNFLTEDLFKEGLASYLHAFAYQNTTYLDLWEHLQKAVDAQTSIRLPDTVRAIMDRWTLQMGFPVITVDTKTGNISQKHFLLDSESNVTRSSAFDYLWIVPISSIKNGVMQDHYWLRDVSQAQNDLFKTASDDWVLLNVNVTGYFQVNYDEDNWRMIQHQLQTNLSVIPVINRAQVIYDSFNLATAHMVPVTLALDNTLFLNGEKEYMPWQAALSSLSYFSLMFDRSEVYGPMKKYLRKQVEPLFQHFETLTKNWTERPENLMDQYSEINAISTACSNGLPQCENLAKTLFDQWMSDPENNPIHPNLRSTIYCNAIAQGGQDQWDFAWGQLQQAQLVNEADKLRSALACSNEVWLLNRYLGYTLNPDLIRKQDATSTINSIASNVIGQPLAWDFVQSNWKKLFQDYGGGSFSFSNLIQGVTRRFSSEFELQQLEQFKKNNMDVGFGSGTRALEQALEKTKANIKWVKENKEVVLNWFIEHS
Method: The BHK-21 and pAPN transfected BHK-21 cells were kindly gifted from Dr. Enjuanes and Dr. Delmas. The BHK-21 cells were cultured in DMEM with 5% FCS, 1% L-Glu, 1% P/S, 1% sodiumpyruvate (Gibco BRL, Life Technologies Inc., Paisley, Scotland), 1% non-essential amino acids (Gibco BRL, Life Technologies Inc., Paisley, Scotland). The pAPN transfected BHK-21 cells were grown in the same medium supplemented with 1.5 mg/ml geneticin G418 (Sigma-Aldrich Chemie GmbH, Steinheim, Germany).
To block the internalization of FLUOS-labeled-F4, 50 μM bestatin, an inhibitor of aminopeptidase N (Sigma-Aldrich Chemie GmbH, Steinheim, Germany) was incubated with BHK-21 or pAPN transfected BHK-21 cells 3 hours before addition of 25 μg FLUOS-labeled-F4. Afterwards, cells were washed 3 times with PBS. The BHK-21 or pAPN transfected BHK-21 cells were analyzed by flow cytometry with a FACScanto using CellDiva software (BD Biosciences). Ten thousand cells were analysed for each sample, and three parameters were used for further analysis: forward light scattering, sideward light scattering and green fluorescence. The median fluorescence intensity was used to measure the amount of FLUOS-labeled-F4 to the cells.

[3] = tested on: wheat germ agglutinin (WGA); experiment: SPR specificity control: bestatin pre-incubated BBMV and enterocytes on immobilized WGA; type: binding; conditions: bestatin 0 mM, 1 mM and 10 mM; F4R+ pigs
Method: The interaction between the F4ac fimbriae and BBMV or enterocytes of F4R+ and F4R− pigs was analyzed with the BIAcore®2000 biosensor (Uppsala, Sweden) using the CM3 chip. This has a short carboxymethyldextran surface to allow immobilization of F4 fimbriae via free NH2-groups using an amine-coupling kit (Biacore, Uppsala, Sweden) containing N-hydroxysuccinimide (NHS), N-ethyl-N′-[(3-dimethylamino)-propyl]-carbodiimide hydrochloride (EDC) and ethanolamine-HCl. Hereto, 100 μl of a mixture of NHS:EDC (1:1) was injected at a flow rate of 10 μl/min at 25° to activate the dextran matrix on the sensor chip, followed by F4ac at a concentration of 100 μg/ml in 0.1 M glycine buffer pH 2.3 until the amount (mol) of immobilized F4 equilized more than 500 resonance units (RU). Thousand RU corresponds to a change in the surface concentration of 1 ng/mm2 (Stenberg 1991). Subsequently, the remaining active sites of the matrix were blocked with 1 M ethanolamine-HCl and washed with HBS-N (0.01 M HEPES, 0.15 M NaCl). […] All samples used in further experiments were diluted in HBS-N buffer, which also served as running buffer during the experiments.
To check the specificity of blocking of bestatin, F4R+ and F4R− enterocytes or BBMV were pre-incubated with 0, 1 mM and 10 mM bestatin, while gently shaking for 1 hour at room temperature and injected in the WGA coated flow cell. […]

F4R on enterocytes = molecular target: T3, F4R on enterocytes (Sus scrofa, UniProt P15145); experiment: biochemical; type: binding, pig; conditions: read-out: inhibition of adhesion of F4R+ enterocytes to F4ac
T3 construct: Brush border membrane vesicles (BBMV) of the small intestine were prepared from the F4R+ and F4R− pigs; from tissue; host or cells: pig jejunum: enterocyte preparations, BBMV, ligated jejunal loops
T3 sequence (P15145 2-963): T1 sequence (P15145 2-963)
Method: The interaction between the F4ac fimbriae and BBMV or enterocytes of F4R+ and F4R− pigs was analyzed with the BIAcore®2000 biosensor (Uppsala, Sweden) using the CM3 chip. This has a short carboxymethyldextran surface to allow immobilization of F4 fimbriae via free NH2-groups using an amine-coupling kit (Biacore, Uppsala, Sweden) containing N-hydroxysuccinimide (NHS), N-ethyl-N′-[(3-dimethylamino)-propyl]-carbodiimide hydrochloride (EDC) and ethanolamine-HCl. Hereto, 100 μl of a mixture of NHS:EDC (1:1) was injected at a flow rate of 10 μl/min at 25° to activate the dextran matrix on the sensor chip, followed by F4ac at a concentration of 100 μg/ml in 0.1 M glycine buffer pH 2.3 until the amount (mol) of immobilized F4 equilized more than 500 resonance units (RU). […] Subsequently, the remaining active sites of the matrix were blocked with 1 M ethanolamine-HCl and washed with HBS-N (0.01 M HEPES, 0.15 M NaCl). […] All samples used in further experiments were diluted in HBS-N buffer, which also served as running buffer during the experiments.
The first approach was to pre-incubate the F4R+ and F4R− enterocytes or BBMV with 0, 50 and 100 μg/ml F4ac fimbriae, while gently shaking. After 1 h pre-incubation at room temperature, a gentle short spin centrifugation was performed. […]

[O-][I+3]([O-])([O-])O [NaIO4]
binding of F4 to the receptor in BBMV of F4R+ pig (BBMV of F4R+ pigs; 25 mM NaIO4, 30 min): greatly reduced
F4ac binding to the BBMV of F4R+ pigs (BBMV of F4R+ pigs; periodate, two hours treatment): abolishing; also recorded: abolished

NC12CC3CC(CC(C3)C1)C2 [amantadine]
effect on F4 internalization in pAPN-BHK cells (pAPN-BHK-21 cells): reduced the F4 internalization

CC(C)C[C@H](NC(=O)[C@@H](O)[C@H](N)Cc1ccccc1)C(=O)O [bestatin]
inhibition at 1000 µM [1]: 4 ± 1.2%
inhibition at 10000 µM [1]: 10 ± 2%
mean fluorescence intensity after treatment of bestatin [2]: 1001±15
interaction of pre-incubated BBMV or enterocytes with WGA [3]: No difference in interaction
FLUOS-labeled F4 internalization (pAPN-BHK-21 cells; bestatin 50 μM, added 30 minutes before FLUOS-labeled F4, pAPN-BHK cells): 18±5.3%
inhibition at 1000 µM (F4R on enterocytes): 22 ± 3.3%
inhibition at 10000 µM (F4R on enterocytes): 72 ± 1%

C=C1[C@@H](C)[C@H]2[C@H](Cc3ccccc3)NC(=O)[C@]23[C@H](OC(C)=O)/C=C/[C@@](C)(O)C(=O)[C@@H](C)C/C=C/[C@H]3[C@@H]1O [cytochalasin D]
effect on F4 internalization in pAPN-BHK cells (pAPN-BHK-21 cells): reduced the F4 internalization

OC[C@H]1O[C@@](CO)(O[C@H]2O[C@H](CO)[C@@H](O)[C@H](O)[C@H]2O)[C@@H](O)[C@@H]1O [hypertonic sucrose, sucrose]
effect on F4 internalization in pAPN-BHK cells (pAPN-BHK-21 cells): reduced the F4 internalization

C/C1=C/C(=O)O[C@@H]2C[C@@H](CC[C@H](C)/C=C\CC1)O[C@@](O)([C@@H]1CSC(=O)N1)C2 [latrunculin B]
effect on F4 internalization in pAPN-BHK cells (pAPN-BHK-21 cells): no effect

dynamin inhibitory peptide
effect on F4 internalization in pAPN-BHK cells (pAPN-BHK-21 cells): reduced the F4 internalization
